In patent US20240116922A1, “IMIDAZO[1,2-A]PYRIDINE DERIVATIVES AS IRAK4 INHIBITORS AND THEIR USE IN THE TREATMENT OF DISEASE” (BIOGEN MA INC., priority 2020, published 2024):
In brackets after ≈: the same amount, converted by molar mass. Counter-ions that a name gives are not always drawn.

What was measured:
[1] = Kpuu assay (in vivo brain-to-plasma unbound partition); details: brain (unbound) versus plasma (unbound); intravenous infusion 4 to 24 h; unbound brain/plasma ratio; read-out: Brain Kpu, u
Protocol: For the brain-to-plasma partition coefficient (Kp) evaluation, a dosing solution was intravenously infused into animals at a constant flow rate for 4 to 24 h. Blood samples were serially collected during infusion, and CSF and brain samples were harvested at the end of infusion.
Tissue samples were typically homogenized in phosphate buffer saline (PBS) using a bead ruptor.
CSF samples were typically diluted with 8% BSA in PBS to prevent from non-specific binding. Artificial CSF (aCSF) is used as the surrogate matrix.
Calibration curves were prepared by spiking the analyte(s) into blank matrices, which were processed together with plasma, tissue homogenate and/or CSF samples by protein precipitation using a proper organic solvent (e.g. acetonitrile and methanol) containing generic analogue internal standards (e.g. verapamil, chrysin and glyburide). Matrix matching was used when analyzing multiple matrices in the same run. Samples above the upper limit of quantitation (ULOQ) needed to be diluted into the calibration range using either a pre-extraction or post-extraction dilution approach.
Processed samples were analyzed by LC-MS/MS using a proper method performing within the acceptable sensitivity, selectivity, precision and accuracy. For an analytical run to be accepted, over 75% of the calibration standards in the dual calibration curves needed to be within 20% of the nominal concentrations.
Brain concentrations were compared against plasma concentrations at the corresponding timepoint for the calculation of partition coefficient (Kp).
Unbound drug partition coefficient (Kpuu), defined as the ratio of unbound drug partition across the blood-brain barrier, was calculated using the equation below:
[formula] • Cb: measured total drug concentration in brain • Fub: unbound drug fraction in brain • Cp: measured total drug concentration in plasma • Fup: unbound drug fraction in plasma
The unbound fraction of the test compound was determined based on the protocols described below.
% Free=(PAR of buffer side/PAR of plasma side)*100 • PAR—Peak area ratio (PAR) • Fu % Free. 100 • Fu=fraction unbound

MDR1 = MDR1 (Homo sapiens (Human), UniProt P08183); assay: in vitro; details: MDCK-MDR1
Sequence of MDR1 (P08183 whole entry): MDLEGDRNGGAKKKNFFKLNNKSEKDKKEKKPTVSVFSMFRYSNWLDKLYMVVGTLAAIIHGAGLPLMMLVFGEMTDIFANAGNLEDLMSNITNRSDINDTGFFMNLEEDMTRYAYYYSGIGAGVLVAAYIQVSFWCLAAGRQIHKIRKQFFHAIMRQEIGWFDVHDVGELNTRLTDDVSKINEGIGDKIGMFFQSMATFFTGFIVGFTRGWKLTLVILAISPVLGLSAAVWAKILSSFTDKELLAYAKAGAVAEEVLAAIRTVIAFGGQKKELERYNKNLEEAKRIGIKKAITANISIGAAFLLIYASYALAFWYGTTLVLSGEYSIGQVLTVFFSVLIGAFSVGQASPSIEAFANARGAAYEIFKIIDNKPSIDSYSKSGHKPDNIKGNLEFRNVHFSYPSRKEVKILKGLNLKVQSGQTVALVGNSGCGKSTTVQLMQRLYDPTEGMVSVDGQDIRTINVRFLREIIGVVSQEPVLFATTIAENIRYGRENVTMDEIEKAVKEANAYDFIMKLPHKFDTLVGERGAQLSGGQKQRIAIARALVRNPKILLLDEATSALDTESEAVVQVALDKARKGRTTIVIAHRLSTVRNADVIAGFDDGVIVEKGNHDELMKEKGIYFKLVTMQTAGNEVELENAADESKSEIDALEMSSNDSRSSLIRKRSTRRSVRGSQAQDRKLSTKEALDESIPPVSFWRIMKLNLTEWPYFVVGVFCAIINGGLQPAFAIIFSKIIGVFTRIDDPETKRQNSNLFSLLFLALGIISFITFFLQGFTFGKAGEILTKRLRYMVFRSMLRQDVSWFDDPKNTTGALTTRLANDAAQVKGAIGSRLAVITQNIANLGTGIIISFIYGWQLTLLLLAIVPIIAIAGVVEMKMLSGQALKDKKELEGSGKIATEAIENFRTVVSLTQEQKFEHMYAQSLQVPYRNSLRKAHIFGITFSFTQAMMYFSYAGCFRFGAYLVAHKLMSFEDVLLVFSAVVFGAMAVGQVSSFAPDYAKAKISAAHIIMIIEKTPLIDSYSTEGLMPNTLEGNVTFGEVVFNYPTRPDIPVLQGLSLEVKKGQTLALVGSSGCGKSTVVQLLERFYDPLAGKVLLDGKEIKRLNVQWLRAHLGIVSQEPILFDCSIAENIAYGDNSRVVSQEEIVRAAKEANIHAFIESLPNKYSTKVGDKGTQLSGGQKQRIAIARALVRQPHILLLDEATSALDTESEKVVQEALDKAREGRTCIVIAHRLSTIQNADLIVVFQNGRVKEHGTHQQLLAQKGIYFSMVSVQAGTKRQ

IRAK4 = IRAK4 (Homo sapiens (Human), UniProt Q9NWZ3); assay: IRAK4 MSD biochemical assay (2-hour 1 mM ATP); details: 0.1 nM IRAK4, 1 mM ATP, 2 hour at room temperature
Sequence of IRAK4 (Q9NWZ3 whole entry): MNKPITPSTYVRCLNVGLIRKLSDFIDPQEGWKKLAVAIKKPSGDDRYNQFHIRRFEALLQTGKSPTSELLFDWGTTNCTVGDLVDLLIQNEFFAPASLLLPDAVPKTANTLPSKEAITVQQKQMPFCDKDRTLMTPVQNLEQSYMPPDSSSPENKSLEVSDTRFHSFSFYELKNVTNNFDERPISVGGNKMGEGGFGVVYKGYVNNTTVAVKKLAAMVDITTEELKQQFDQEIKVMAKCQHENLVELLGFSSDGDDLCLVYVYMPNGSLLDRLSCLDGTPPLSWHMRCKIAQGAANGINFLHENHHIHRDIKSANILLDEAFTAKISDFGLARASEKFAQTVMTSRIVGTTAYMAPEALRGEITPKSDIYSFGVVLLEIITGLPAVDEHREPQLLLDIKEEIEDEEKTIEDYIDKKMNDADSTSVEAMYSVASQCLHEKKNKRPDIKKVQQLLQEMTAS

[2] = Kinetic solubility assay (CLND), pH 6.8; assay type: physicochemical; details: aqueous buffer, kinetic from dmso stock; potassium phosphate buffer pH 6.8, 2% DMSO, 24 hours at ambient temperature

Row | Structure (SMILES) | Kpuu (unbound brain-to-plasma partition coefficient) [1] | efflux ratio at 120 min, 1 μM (MDR1) | IC50 (IRAK4) | solubility kinetic at 24 h [2]
1 | CC(C)Oc1nc2nc(C34COC(C)(C3)C4)cn2cc1C(=O)Nc1cccn(C2CC2)c1=O [Example 18, N-(1-cyclopropyl-2-oxo-1,2-dihydropyridin-3-yl)-7-isopropoxy-2-(1-methyl-2-oxabicyclo[2.1.1]hexan-4-yl)imidazo[1,2-a]pyrimidine-6-carboxamide] | 0.7 | – | – | –
2 | CCC(C)Oc1cc2nc([C@@]34CC[C@@](C)(C3)OC4)cn2cc1C(=O)Nc1cccn(C2CC2)c1=O (stereo partly drawn) [Example 20, 7-(sec-butoxy)-N-(1-cyclopropyl-2-oxo-1,2-dihydropyridin-3-yl)-2-((1S,4R)-1-methyl-2-oxabicyclo[2.2.1]heptan-4-yl)imidazo[1,2-a]pyridine-6-carboxamide] | – | 2.8 | 0.7 nM | 68.1 µg/mL (≈ 143 µM)
3 | Cc1cnc2c(NC(=O)c3cn4cc([C@@]56CC[C@@](C)(C5)OC6)nc4cc3OC(C)C)cnn2c1 (single isomer, unassigned) [Comparator 3B, reference compound] | – | 2 | 0.1 nM | 0.7 µg/mL (≈ 1.52 µM)
4 | CC(C)Oc1cc2nc([C@@]34CC[C@@H](C3)OC4)cn2cc1C(=O)Nc1cccn(C2CC2)c1=O (single isomer, unassigned) [Example 39] | – | 6.8 | 0.2 nM | 68.9 µg/mL (≈ 154 µM)
5 | CC(C)Oc1cc2nc([C@]34CC[C@](C)(C3)OC4)cn2cc1C(=O)Nc1cccn([C@H]2C[C@H]2F)c1=O [Example 171, N-(1-((1S,2R)-2-fluorocyclopropyl)-2-oxo-1,2-dihydropyridin-3-yl)-7-isopropoxy-2-((1R,4S)-1-methyl-2-oxabicyclo[2.2.1]heptan-4-yl)imidazo[1,2-a]pyridine-6-carboxamide] | – | 9.8 | 0.2 nM | 47.9 µg/mL (≈ 99.7 µM)
6 | CC[C@H](C)Oc1nc2nc(C34COC(C)(C3)C4)cn2cc1C(=O)Nc1cccn([C@H]2C[C@H]2F)c1=O (single isomer, unassigned) [Example 60] | – | 9 | 0.2 nM | 55.5 µg/mL (≈ 115 µM)
7 | CC(C)Oc1nc2nc([C@@]34CC[C@@](C)(C3)OC4)cn2cc1C(=O)Nc1ccn(C)n1 (single isomer, unassigned) [Comparator 4C, reference compound] | – | 4.6 | 2.5 nM | 51.3 µg/mL (≈ 125 µM)
8 | CC12CC(c3cn4cc(C(=O)Nc5cccn([C@@H]6C[C@@H]6F)c5=O)c(OC5CC5)cc4n3)(CO1)C2 (racemic) [Example 105, (rac)-Cis-7-cyclopropoxy-N-(1-(2-fluorocyclopropyl)-2-oxo-1,2-dihydropyridin-3-yl)-2-(1-methyl-2-oxabicyclo[2.1.1]hexan-4-yl)imidazo[1,2-a]pyridine-6-carboxamide] | – | 15.8 | 0.7 nM | 38.7 µg/mL (≈ 83.3 µM)
9 | CC(C)Oc1cc2nc([C@@]34CC[C@@](C)(C3)OC4)cn2cc1C(=O)Nc1cccn([C@@H]2C[C@H]2F)c1=O [Example 116, N-(1-((1R,2R)-2-fluorocyclopropyl)-2-oxo-1,2-dihydropyridin-3-yl)-7-isopropoxy-2-((1S,4R)-1-methyl-2-oxabicyclo[2.2.1]heptan-4-yl)imidazo[1,2-a]pyridine-6-carboxamide] | – | 5.3 | 0.6 nM | 55.6 µg/mL (≈ 116 µM)
10 | CC[C@H](C)Oc1cc2nc(C34COC(C)(C3)C4)cn2cc1C(=O)Nc1cccn([C@H]2C[C@H]2F)c1=O (single isomer, unassigned) [Example 161] | – | 8.6 | 0.1 nM | 54.6 µg/mL (≈ 114 µM)
11 | O=C(Nc1cccn([C@@H]2C[C@@H]2F)c1=O)c1cn2cc(C34COC(C3)C4)nc2nc1OC1CCC1 (racemic) [Example 86, (rac)-Cis-2-(2-oxabicyclo[2.1.1]hexan-4-yl)-7-cyclobutoxy-N-(1-(2-fluorocyclopropyl)-2-oxo-1,2-dihydropyridin-3-yl)imidazo[1,2-a]pyrimidine-6-carboxamide] | – | 0.9 | 0.8 nM | 44.9 µg/mL (≈ 96.5 µM)
12 | CC12CC(c3cn4cc(C(=O)Nc5cccn([C@H]6C[C@H]6F)c5=O)c(OC5CC5)cc4n3)(CO1)C2 [Example 175, 7-cyclopropoxy-N-(1-((1S,2R)-2-fluorocyclopropyl)-2-oxo-1,2-dihydropyridin-3-yl)-2-(1-methyl-2-oxabicyclo[2.1.1]hexan-4-yl)imidazo[1,2-a]pyridine-6-carboxamide] | – | 8.9 | 0.2 nM | 43 µg/mL (≈ 92.6 µM)
13 | CC(C)Oc1cc2nc([C@]34CC[C@](C)(C3)OC4)cn2cc1C(=O)Nc1cccn(C2CC2F)c1=O (mixture of isomers) [Example 100, N-(1-(2-fluorocyclopropyl)-2-oxo-1,2-dihydropyridin-3-yl)-7-isopropoxy-2-((1R,4S)-1-methyl-2-oxabicyclo[2.2.1]heptan-4-yl)imidazo[1,2-a]pyridine-6-carboxamide] | – | 12.6 | 0.6 nM | 27.6 µg/mL
14 | CC(C)Oc1cc2nc([C@@]34CC[C@@](C)(C3)OC4)cn2cc1C(=O)Nc1cccn(C2C[C@H]2C)c1=O (stereo partly drawn) [Example 98, trans-7-isopropoxy-2-((1S,4R)-1-methyl-2-oxabicyclo[2.2.1]heptan-4-yl)-N-(1-(2-methylcyclopropyl)-2-oxo-1,2-dihydropyridin-3-yl)imidazo[1,2-a]pyridine-6-carboxamide] | – | 2.1 | 0.7 nM | 89.7 µg/mL (≈ 188 µM)
15 | C[C@@]12CC[C@@](c3cn4cc(C(=O)Nc5cccn(C6CC6)c5=O)c(OC5CCC5)nc4n3)(CO1)C2 (single isomer, unassigned) [Example 16] | – | 2.8 | 0.3 nM | 5.2 µg/mL (≈ 10.9 µM)
16 | CC12CC(c3cn4cc(C(=O)Nc5cccn(C6CC6)c5=O)c(OC5CC5)cc4n3)(CO1)C2 [Example 104, 7-cyclopropoxy-N-(1-cyclopropyl-2-oxo-1,2-dihydropyridin-3-yl)-2-(1-methyl-2-oxabicyclo[2.1.1]hexan-4-yl)imidazo[1,2-a]pyridine-6-carboxamide] | – | 4.3 | 1.7 nM | 74.5 µg/mL (≈ 167 µM)
17 | CC12CC(c3cn4cc(C(=O)Nc5cccn([C@H]6C[C@H]6F)c5=O)c(OC5CCC5)nc4n3)(CO1)C2 (single isomer, unassigned) [Example 114] | – | 10.4 | 0.3 nM | 68.6 µg/mL (≈ 143 µM)
18 | CC(C)Oc1cc2nc([C@@H]3COCCO3)cn2cc1C(=O)Nc1cccn(C2CC2)c1=O (single isomer, unassigned) [Example 69] | – | 4.7 | 0.3 nM | 6.1 µg/mL (≈ 13.9 µM)
19 | CC(C)Oc1cc2nc([C@@]34CC[C@@](C)(C3)OC4)cn2cc1C(=O)Nc1cccn([C@@H]2C[C@H]2C)c1=O (single isomer, unassigned) [Example 191] | – | 1.5 | 0.4 nM | 48.5 µg/mL (≈ 102 µM)
20 | CC(C)Oc1cc2nc(C34COC(C)(C3)C4)cn2cc1C(=O)Nc1cccn([C@@H]2C[C@H]2C)c1=O [Example 139, 7-isopropoxy-2-(1-methyl-2-oxabicyclo[2.1.1]hexan-4-yl)-N-(1-((1R,2R)-2-methylcyclopropyl)-2-oxo-1,2-dihydropyridin-3-yl)imidazo[1,2-a]pyridine-6-carboxamide] | – | 3 | 0.5 nM | 38.4 µg/mL (≈ 83 µM)
21 | CC(C)Oc1cc2nc([C@H]3COCCO3)cn2cc1C(=O)Nc1cccn(C2CC2)c1=O (single isomer, unassigned) [Example 70] | – | 3.9 | 1.2 nM | 9.9 µg/mL (≈ 22.6 µM)
22 | CC(C)Oc1cc2nc([C@@]34CC[C@@](C)(C3)OC4)cn2cc1C(=O)Nc1ccnn(C2CC2)c1=O [Example 74, N-(2-cyclopropyl-3-oxo-2,3-dihydropyridazin-4-yl)-7-isopropoxy-2-((1S,4R)-1-methyl-2-oxabicyclo[2.2.1]heptan-4-yl)imidazo[1,2-a]pyridine-6-carboxamide] | – | 1 | 1.2 nM | 47.5 µg/mL (≈ 102 µM)
23 | CC[C@@H](C)Oc1nc2nc([C@@]34CC[C@@](C)(C3)OC4)cn2cc1C(=O)Nc1cccn(C2CC2)c1=O [Example 48, 7-((R)-sec-butoxy)-N-(1-cyclopropyl-2-oxo-1,2-dihydropyridin-3-yl)-2-((1S,4R)-1-methyl-2-oxabicyclo[2.2.1]heptan-4-yl)imidazo[1,2-a]pyrimidine-6-carboxamide] | – | 3.2 | 0.8 nM | 63.2 µg/mL (≈ 132 µM)
24 | O=C(Nc1cccn(C2CC2F)c1=O)c1cn2cc([C@]34CO[C@](CF)(C3)C4)nc2nc1OC1CCC1 (mixture of isomers) [Example 106, (rac)-Cis-7-cyclobutoxy-N-(1-(2-fluorocyclopropyl)-2-oxo-1,2-dihydropyridin-3-yl)-2-(1-(fluoromethyl)-2-oxabicyclo[2.1.1]hexan-4-yl)imidazo[1,2-a]pyrimidine-6-carboxamide] | – | 12.8 | 0.5 nM | 44.4 µg/mL
25 | CC(C)Oc1cc2nc([C@@]34CC[C@@](C)(C3)OC4)cn2cc1C(=O)Nc1cccn([C@H]2C[C@H]2C)c1=O [Example 182, 7-isopropoxy-2-((1S,4R)-1-methyl-2-oxabicyclo[2.2.1]heptan-4-yl)-N-(1-((1S,2R)-2-methylcyclopropyl)-2-oxo-1,2-dihydropyridin-3-yl)imidazo[1,2-a]pyridine-6-carboxamide trifluoroacetate] | – | 3.9 | 0.2 nM | 31.8 µg/mL
26 | CC12CC(c3cn4cc(C(=O)Nc5cccn([C@H]6C[C@H]6F)c5=O)c(OC5CCC5)cc4n3)(CO1)C2 (single isomer, unassigned) [Example 173] | – | 10.9 | 0.2 nM | 22.6 µg/mL (≈ 47.2 µM)
